Test results as given in US9073863B2, “Cyanoquinoline compounds having activity in correcting mutant-CFTR processing and increasing ion transport and uses thereof” (The Regents of the University of California, priority 2011, dated 2015).

Legend:
[1] = target: T1, ΔF508-CFTR (Homo sapiens, UniProt P13569, DEL508-508); assay: Potentiator assay, YFP fluorescence plate reader iodide influx in low-temperature rescued ΔF508-CFTR expressing FRT cells; type: cell-based; conditions: for potentiator activity, in words: piperazine ring in place of diamino ethylene tether; for EC50 / Potentiator Vmax / Potentiator EC50: forskolin 20 μM + test compound
T1 construct: expressed in transfected cells; host or cells: Fischer rat thyroid (FRT) epithelial cells, stably transfected
T1 sequence (P13569 with tags, fused parts or gaps DEL508-508): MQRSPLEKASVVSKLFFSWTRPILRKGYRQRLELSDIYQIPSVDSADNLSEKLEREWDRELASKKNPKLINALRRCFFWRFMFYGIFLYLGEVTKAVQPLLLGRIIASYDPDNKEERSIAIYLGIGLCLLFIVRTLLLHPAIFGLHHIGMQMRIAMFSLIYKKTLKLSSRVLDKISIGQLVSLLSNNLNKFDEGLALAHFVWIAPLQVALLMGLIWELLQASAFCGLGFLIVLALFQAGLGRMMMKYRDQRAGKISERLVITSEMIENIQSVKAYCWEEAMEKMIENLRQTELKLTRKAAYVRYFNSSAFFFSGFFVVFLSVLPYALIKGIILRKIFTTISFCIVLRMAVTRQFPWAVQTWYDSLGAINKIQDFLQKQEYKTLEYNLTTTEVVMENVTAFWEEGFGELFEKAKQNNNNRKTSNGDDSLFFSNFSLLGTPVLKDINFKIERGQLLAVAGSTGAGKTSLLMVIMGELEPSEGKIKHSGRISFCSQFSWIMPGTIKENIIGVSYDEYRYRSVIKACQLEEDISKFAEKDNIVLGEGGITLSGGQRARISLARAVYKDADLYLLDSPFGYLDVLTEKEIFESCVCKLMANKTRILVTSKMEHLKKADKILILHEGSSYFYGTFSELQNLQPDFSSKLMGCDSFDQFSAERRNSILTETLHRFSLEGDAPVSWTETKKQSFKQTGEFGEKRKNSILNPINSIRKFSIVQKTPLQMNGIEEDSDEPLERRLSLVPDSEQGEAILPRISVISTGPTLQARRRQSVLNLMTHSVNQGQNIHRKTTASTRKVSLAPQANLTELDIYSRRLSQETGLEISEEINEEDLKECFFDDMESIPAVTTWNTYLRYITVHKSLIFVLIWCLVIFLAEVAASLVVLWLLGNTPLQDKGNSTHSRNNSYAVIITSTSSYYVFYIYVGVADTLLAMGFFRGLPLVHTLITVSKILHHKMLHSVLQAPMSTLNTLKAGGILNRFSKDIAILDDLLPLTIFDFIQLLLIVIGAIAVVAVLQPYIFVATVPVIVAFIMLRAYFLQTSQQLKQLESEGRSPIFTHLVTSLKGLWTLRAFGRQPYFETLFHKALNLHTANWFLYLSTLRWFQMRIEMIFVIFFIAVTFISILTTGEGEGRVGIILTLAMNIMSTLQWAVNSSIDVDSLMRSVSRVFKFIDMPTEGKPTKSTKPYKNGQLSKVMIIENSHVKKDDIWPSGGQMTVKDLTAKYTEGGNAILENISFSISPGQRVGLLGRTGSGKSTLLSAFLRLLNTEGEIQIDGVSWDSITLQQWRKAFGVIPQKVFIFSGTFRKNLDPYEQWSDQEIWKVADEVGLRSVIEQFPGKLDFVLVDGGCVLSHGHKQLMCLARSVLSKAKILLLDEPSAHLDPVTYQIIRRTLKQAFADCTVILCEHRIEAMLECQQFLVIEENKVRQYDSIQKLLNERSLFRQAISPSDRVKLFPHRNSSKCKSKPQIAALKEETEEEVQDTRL
Experimental: (§1) Screening procedures. Screening of compounds for activity was carried out using a Beckman Coulter platform equipped with FLUOstar fluorescence plate readers (Optima; BMG Labtech) with dual syringe pumps and 500±10 nm excitation and 535±15 nm emission filters (Chroma Corp.). For the corrector assay, FRT cells were grown at 37° C./5% CO2 for 18-24 h and then incubated for 18-24 h with 100 μL of medium containing test compounds (25 μM final concentration). At the time of the assay, cells were washed with PBS and then incubated for 10 min with PBS containing forskolin (20 μM) and genistein (50 μM). For the potentiator assay, FRT cells were grown at 37° C./5% CO2 for 18-24 h and then for 18-24 h at 27° C. At the time of the assay, cells were washed with PBS and then incubated for 10 min with PBS (50 μL) containing forskolin (20 μM) and test compound (0-25 μM final concentration). For both the corrector and potentiator assays, each well was assayed individually for I^− influx by recording fluorescence continuously (200 ms per point) for 2 s (baseline) and then for 12 s after rapid addition of 165 μL PBS in which 137 mM Cl^− was replaced by I^−. Initial I^− influx rate was computed by fitting the final 11.5 seconds of the data to an exponential for extrapolation of initial slope, which was normalized for background-subtracted initial fluorescence. All compound plates contained negative controls and positive controls (10 μM Corr-4a for corrector assay; 50 μM genistein for potentiator assay).
(§2) Screening of about 110,000 small molecules was done to identify new ΔF508-CFTR corrector scaffolds having high correction efficiency and/or having independent potentiator activity. […] FRT cells co-expressing human ΔF508-CFTR and a halide-sensing YFP were incubated with test compounds at 37° C. (corrector assay) or 27° C. (potentiator assay). ΔF508-CFTR function was assayed in a plate reader from YFP fluorescence quenching in response to iodide addition in the presence of forskolin (20 μM) plus genistein (50 μM) for corrector assay, or forskolin (20 μM) alone for potentiator assay. As shown in FIG. 1A (left), primary screening for corrector activity was done using a cell-based fluorescence assay of iodide influx in which FRT cells expressing ΔF508-CFTR and an iodide-sensitive YFP were incubated with test compounds at 10 μM for 18-24 h prior to assay. Iodide influx was measured by addition of extracellular iodide in the presence of a potentiator (50 μM genistein) and cAMP agonist (20 μM forskolin). Compound efficacy and potency (from concentration-dependence studies) in the corrector assay were compared to reference bithiazole Corr-4a (10 μM) and to low-temperature rescued cells. Active compounds were counter-screened for potentiator activity (FIG. 1A, right) in which iodide influx was measured in the ΔF508-CFTR expressing FRT cells after low-temperature rescue and in the presence of 20 μM forskolin.
(§3) Screening procedures. Plate reader activity assay was carried out using a Beckman Coulter platform containing a robotic arm, CO2 incubator containing microplate carousel, plate-washer, liquid handling work station, bar code reader, de-lidding station, plate sealer, and FLUOstar fluorescence plate readers (Optima; BMG LABTECH Gmbh), equipped with dual syringe pumps and 500±10 nm excitation and 535±15 nm emission filters (Chroma Corp.). For the corrector assay, ΔF508-CFTR-expressing FRT cells were grown at 37° C. (90% humidity; 5% CO2) for 18-24 h and then incubated for 18-24 h with 100 μL of medium containing test compounds (0-25 μM final concentration). At the time of the assay, cells were washed with PBS and then incubated for 10 min with PBS containing forskolin (20 μM) and genistein (50 μM). For the potentiator assay, FRT cells were grown at 37° C. (90% humidity; 5% CO2) for 18-24 h and then for 18-24 h at 27° C. […]

[2] = target: T1, ΔF508-CFTR; assay: Corrector assay, YFP fluorescence plate reader iodide influx in ΔF508-CFTR expressing FRT cells; type: cell-based; conditions: for corrector activity, comparison in words: propylene tether, methoxy position on arylamide; for corrector and potentiator activities, in words: concentration-dependence in corrector and potentiator I− influx assays (FIG. 2, FIG. 7); for Corrector Vmax / EC50 / Corrector EC50: 18-24 h with compound at 37° C., forskolin 20 μM + genistein 50 μM
Experimental: as §1, §2, §3

[3] = Table VIII, FRT cells, I− influx
[4] = Table VIII, FRT cells 18-24 h at 27° C., I− influx
[5] = Table IX, additional experiments
[6] = Table IX, additional experiments, 18-24 h at 27° C.

COc1cccc(C(=O)N2CCN(c3nc4cc(C)cc(C)c4cc3C#N)CC2)c1 [Compound AW2]
potentiator activity, in words [1]: significant potentiator activity

COc1ccc(C(=O)NCCCNc2nc3cc(C)cc(C)c3cc2C#N)cc1 [Compound AW9]
corrector activity, comparison in words [2]: greater corrector activity than Compound AW7

COc1ccc(C(=O)N2CCN(c3nc4cc(C)cc(C)c4cc3C#N)CC2)cc1 [Compound AW3]
corrector and potentiator activities, in words [2]: potentiator-only activity | potentiator activity, in words [1]: significant potentiator activity

COc1ccc2nc(N3CCN(C(=O)c4ccccc4F)CC3)c(C#N)cc2c1
Corrector Vmax [2, 3]: 140 µM/s | EC50 [2, 3]: 4.2 µM | EC50 [1, 4]: 11 µM | Potentiator Vmax [1, 4]: 195 µM/s

COc1ccc(C(=O)NCCNc2nc3cc(C)cc(C)c3cc2C#N)nc1 [drawing 186]
Corrector Vmax [2, 5]: 88 µM/s | EC50 [2, 5]: 2.7 ± 0.5 µM | EC50 [1, 6]: 3.4 ± 0.5 µM | Potentiator Vmax [1, 6]: 70 µM/s

COc1ccc(C(=O)NCCNc2nc3cc(C)cc(C)c3cc2C#N)cc1 [drawing 148]
Corrector Vmax [2, 3]: 172 µM/s | EC50 [2, 3]: 3 µM | EC50 [1, 4]: 4.1 µM | Potentiator Vmax [1, 4]: 181 µM/s

COc1ccc(C(=O)N2CCN(c3nc4cc(C)cc(C)c4cc3C#N)CC2)cc1 [drawing 172]
Corrector EC50 [2, 5]: inactive | Corrector Vmax [2, 5]: inactive | Potentiator Vmax [1, 6]: 281 µM/s

COc1ccccc1C(=O)N1CCN(c2nc3cc(C)cc(C)c3cc2C#N)CC1 [drawing 152]
Corrector Vmax [2, 3]: inactive | Potentiator Vmax [1, 4]: 129 µM/s

COc1cccc(C(=O)NCCCNc2nc3cc(C)cc(C)c3cc2C#N)c1 [drawing 159]
Corrector Vmax [2, 3]: 134 µM/s | EC50 [1, 4]: 4.6 µM | Potentiator Vmax [1, 4]: 147 µM/s

COc1ccc(C(=O)NCCNc2nc3cc(C)cc(C)c3cc2C#N)c(OC)c1
Corrector Vmax [2, 5]: 108 µM/s | EC50 [2, 5]: 4.2 ± 0.4 µM | EC50 [1, 6]: 55 ± 3.5 µM | Potentiator Vmax [1, 6]: 426 µM/s

COc1cccc(C(=O)N2CCN(c3nc4cc(C)cc(C)c4cc3C#N)CC2)c1 [drawing 171]
Corrector EC50 [2, 5]: inactive | Corrector Vmax [2, 5]: inactive | Potentiator Vmax [1, 6]: 200 µM/s

Cc1cc(C)c2cc(C#N)c(NCCCNC(=O)c3cccnc3)nc2c1 [drawing 180]
Corrector Vmax [2, 5]: 140 µM/s | EC50 [2, 5]: 3 ± 0.5 µM | Potentiator Vmax [1, 6]: 115 µM/s

COc1ccc(S(=O)(=O)N2CCN(c3nc4ccc(C)cc4cc3C#N)CC2)cc1 [drawing 140]
Corrector Vmax [2, 3]: 102 µM/s | EC50 [2, 3]: 5 µM | EC50 [1, 4]: 3.8 µM | Potentiator Vmax [1, 4]: 72 µM/s

COc1ccccc1C(=O)NCCNc1nc2cc(C)cc(C)c2cc1C#N [drawing 147]
Corrector Vmax [2, 3]: 114 µM/s | EC50 [1, 4]: 2.3 µM | Potentiator Vmax [1, 4]: 154 µM/s

Cc1cc(C)c2cc(C#N)c(NCCNC(=O)c3ccccc3)nc2c1
Corrector Vmax [2, 5]: inactive | EC50 [1, 6]: 10 ± 2 µM | Potentiator Vmax [1, 6]: 210 µM/s

Cc1cc(C)c2cc(C#N)c(NCCCNC(=O)c3ccncc3)nc2c1 [drawing 163]
Corrector EC50 [2, 3]: inactive | Corrector Vmax [2, 3]: inactive

Cc1cc(C)c2cc(C#N)c(NCCNC(=O)c3cnccn3)nc2c1
Corrector Vmax [2, 5]: 174 µM/s | EC50 [2, 5]: 6.7 ± 1 µM | Potentiator Vmax [1, 6]: inactive

COc1ccc(C(=O)NCCNc2nc3c(C)cccc3cc2C#N)cc1OC [Compound 01]
corrector and potentiator activities, in words [2]: corrector and potentiator activities comparable to those of Compound 22

Cc1cc(C)c2cc(C#N)c(NCCCNC(=O)c3ccncc3)nc2c1 [drawing 181]
Corrector Vmax [2, 5]: 61 µM/s | EC50 [2, 5]: 8.2 ± 0.4 µM | EC50 [1, 6]: 13.2 ± 0.4 µM | Potentiator Vmax [1, 6]: 53 µM/s

COc1ccc(C(=O)NCCNc2nc3ccc(C)cc3cc2C#N)cc1OC [drawing 138]
Corrector Vmax [2, 3]: 281 µM/s | EC50 [2, 3]: 3.9 µM | EC50 [1, 4]: 15 µM | Potentiator Vmax [1, 4]: 297 µM/s

Cc1cc(C)c2cc(C#N)c(NCCNC(=O)c3cccs3)nc2c1 [drawing 139]
Corrector Vmax [2, 3]: 228 µM/s | EC50 [2, 3]: 14 µM | EC50 [1, 4]: 14 µM | Potentiator Vmax [1, 4]: 289 µM/s

COc1ccc(C(=O)NCCNc2nc3c(C)cccc3cc2C#N)cc1OC [drawing 137]
Corrector Vmax [2, 3]: 223 µM/s | EC50 [2, 3]: 3.8 µM | EC50 [1, 4]: 15 µM | Potentiator Vmax [1, 4]: 250 µM/s

Cc1cc(C)c2cc(C#N)c(N3CCN(C(=O)c4ccccn4)CC3)nc2c1 [drawing 155]
Corrector Vmax [2, 3]: inactive | Potentiator Vmax [1, 4]: 102 µM/s

Cc1cc(C)c2cc(C#N)c(NCCCNC(=O)c3cccnc3)nc2c1 [drawing 162]
Corrector EC50 [2, 3]: inactive | Corrector Vmax [2, 3]: inactive | EC50 [1, 4]: 16 µM | Potentiator Vmax [1, 4]: 115 µM/s

Cc1cc(C)c2cc(C#N)c(NCCNC(=O)c3cccnc3)nc2c1 [drawing 168]
Corrector Vmax [2, 5]: 151 µM/s | EC50 [2, 5]: 2.7 ± 0.6 µM | EC50 [1, 6]: 13.2 ± 0.6 µM | Potentiator Vmax [1, 6]: 242 µM/s

Cc1cc(C)c2cc(C#N)c(N3CCN(C(=O)c4ccccn4)CC3)nc2c1 [drawing 173]
Corrector EC50 [2, 5]: inactive | Corrector Vmax [2, 5]: inactive | EC50 [1, 6]: 7.4 ± 0.3 µM | Potentiator Vmax [1, 6]: 102 µM/s

COc1ccc2nc(N3CCN(C(=O)c4ccccc4Br)CC3)c(C#N)cc2c1
Corrector EC50 [2, 3]: inactive | Corrector Vmax [2, 3]: inactive | EC50 [1, 4]: 5 µM | Potentiator Vmax [1, 4]: 235 µM/s

Cc1cc(C)c2cc(C#N)c(N3CCN(C(=O)c4ccncc4)CC3)nc2c1
Corrector EC50 [2, 5]: inactive | Corrector Vmax [2, 5]: inactive | Potentiator EC50 [1, 6]: inactive | Potentiator Vmax [1, 6]: inactive

Cc1cc(C)c2cc(C#N)c(N3CCN(C(=O)c4cccnc4)CC3)nc2c1 [drawing 156]
Potentiator EC50 [1, 4]: inactive | Potentiator Vmax [1, 4]: inactive

COc1ccc(C(=O)NCCNc2nc3cc(C)cc(C)c3cc2C#N)nc1 [Compound 110]
corrector and potentiator activities, in words [2]: both corrector and potentiator activities

COc1ccc(C(=O)NCCNc2nc3cc(C)cc(C)c3cc2C#N)cc1OC [Compound 103]
corrector and potentiator activities, in words [2]: both corrector and potentiator activities

COc1ccc(S(=O)(=O)N2CCN(c3nc4ccc(C)cc4cc3C#N)CC2)cc1 [Compound 05]
corrector and potentiator activities, in words [2]: dual activities

Cc1cc(C)c2cc(C#N)c(NCCNC(=O)c3cccnc3)nc2c1 [Compound CP5]
corrector and potentiator activities, in words [2]: both corrector and potentiator activities

COc1cccc(C(=O)NCCCNc2nc3cc(C)cc(C)c3cc2C#N)c1 [Compound AW8]
corrector activity, comparison in words [2]: greater corrector activity than Compound AW7

Cc1cc(C)c2cc(C#N)c(NCCNC(=O)c3cccs3)nc2c1 [Compound 03]
corrector and potentiator activities, in words [2]: dual activities

Cc1cc(C)c2cc(C#N)c(NCCCNC(=O)c3ccccn3)nc2c1 [drawing 161]
EC50 [1, 4]: 6.1 µM | Potentiator Vmax [1, 4]: 233 µM/s

CCOc1ccccc1NC(=S)NCCNc1nc2c(C)cccc2cc1C#N [Compound 14]
corrector and potentiator activities, in words [2]: potentiator-only activity

COc1ccc(C(=O)NCCNc2nc3ccc(C)cc3cc2C#N)cc1OC [Compound 02]
corrector and potentiator activities, in words [2]: corrector and potentiator activities comparable to those of Compound 22
